According to ChEMBL document CHEMBL1201862, “PubChem BioAssay data set” (2004):
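96-well plates; 48 h exposure; 5 concentrations. Endpoints by linear interpolation between flanking doses. Not reached: highest tested concentration assigned. GI50: concentration for 50% inhibition of growth.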 Active and inactive are the calls of the source. Rule as the data show it: active = GI50 up to about 1.1 µM and inactive = higher.

Key:
Assay in all cases: DTP human tumour cell line panel, 48 h
[1] = tested on: 786-0
[2] = tested on: A549
[3] = tested on: COLO 205
[4] = tested on: HCT-15
[5] = tested on: HL-60
[6] = tested on: HT-29
[7] = tested on: Hs-578T
[8] = tested on: IGROV-1
[9] = tested on: K562
[10] = tested on: LOX IMVI
[11] = tested on: MCF7
[12] = tested on: MDA-MB-231
[13] = tested on: MOLT-4
[14] = tested on: Malme-3M
[15] = tested on: OVCAR-4
[16] = tested on: OVCAR-5
[17] = tested on: RPMI-8226
[18] = tested on: SK-MEL-5
[19] = tested on: SNB-19
[20] = tested on: T47D

| Structure (SMILES) | GI50 [1] | GI50 [2] | GI50 [3] | GI50 [4] [µM] | GI50 [5] | GI50 [6] | GI50 [7] | GI50 [8] | GI50 [9] | GI50 [10] | GI50 [11] | GI50 [12] | GI50 [13] | GI50 [14] | GI50 [15] | GI50 [16] | GI50 [17] | GI50 [18] | GI50 [19] | GI50 [20] |
| --- | --- | --- | --- | --- | --- | --- | --- | --- | --- | --- | --- | --- | --- | --- | --- | --- | --- | --- | --- | --- |
| Nc1ccc(Nc2c3ccccc3nc3ccccc23)cc1 | 3.1 µM (inactive) | 3.15 µM (inactive) | 3.78 µM (inactive) | 2.84 | 1.8 µM (inactive) | 3.49 µM (inactive) | 7.55 µM (inactive) | 6.65 µM (inactive) | 4.86 µM (inactive) | 1.06 µM (active) | 2.2 µM (inactive) | 5.81 µM (inactive) | 0.568 µM (active) | 2.98 µM (inactive) | 3.83 µM (inactive) | 5.52 µM (inactive) | 4.49 µM (inactive) | 3.86 µM (inactive) | 4.99 µM (inactive) | 6.49 µM (inactive) |
| O=C1CSC(c2cc3cc(Br)ccc3nc2Cl)N1c1ccc(F)c(Cl)c1 (stereo not given) | 27.4 µM (inactive) | > 50 µM (inactive) | > 50 µM (inactive) | 33 | > 50 µM (inactive) | > 50 µM (inactive) | > 50 µM (inactive) | 18.6 µM (inactive) | 18.6 µM (inactive) | 22.9 µM (inactive) | 18.9 µM (inactive) | > 50 µM (inactive) | 11.1 µM (inactive) | > 50 µM (inactive) | > 50 µM (inactive) | > 50 µM (inactive) | 18.1 µM (inactive) | > 50 µM (inactive) | > 50 µM (inactive) | 31.4 µM (inactive) |
| COC(=O)/C=C(\S/C(=C(/c1ccc(OC)cc1)n1cc(C(=O)OC)c(C(=O)OC)n1)c1ccc(OC)cc1)C(=O)OC | 5.36 µM (inactive) | 77.6 µM (inactive) | 3.01 µM (inactive) | 6.43 | 2.7 µM (inactive) | 8.04 µM (inactive) | 47.9 µM (inactive) | 6.4 µM (inactive) | 6.5 µM (inactive) | 9.35 µM (inactive) | 5.62 µM (inactive) | > 100 µM (inactive) | 2.78 µM (inactive) | 13.7 µM (inactive) | 19.4 µM (inactive) | 27.1 µM (inactive) | 38.3 µM (inactive) | 35.5 µM (inactive) | 51.8 µM (inactive) | 3.02 µM (inactive) |
| Cc1cc(NS(=O)(=O)c2ccc(NC(=O)c3ccc4nc5ccccc5c(Nc5ccc(S(=O)(=O)Nc6cc(C)on6)cc5)c4c3)cc2)no1 | > 50 µM (inactive) | > 50 µM (inactive) | > 50 µM (inactive) | > 50 | > 50 µM (inactive) | > 50 µM (inactive) | > 50 µM (inactive) | > 50 µM (inactive) | > 50 µM (inactive) | > 50 µM (inactive) | > 50 µM (inactive) | > 50 µM (inactive) | > 50 µM (inactive) | > 50 µM (inactive) | > 50 µM (inactive) | > 50 µM (inactive) | > 50 µM (inactive) | > 50 µM (inactive) | > 50 µM (inactive) | > 50 µM (inactive) |
| CC(C)c1c(O)c(O)c2c(c1O)C(=O)C(O)=C1C(C)(C)CCC[C@@]12C | 3.44 µM (inactive) | 3.6 µM (inactive) | 1.97 µM (inactive) | 3.66 | 2.05 µM (inactive) | 2.94 µM (inactive) | 4.31 µM (inactive) | 3.73 µM (inactive) | 2.77 µM (inactive) | 4.32 µM (inactive) | 3.13 µM (inactive) | 2.92 µM (inactive) | 2.96 µM (inactive) | 3.88 µM (inactive) | 3.26 µM (inactive) | 5.18 µM (inactive) | 1.26 µM (inactive) | 2.6 µM (inactive) | 4.76 µM (inactive) | 3.24 µM (inactive) |
| CN(C)CCNC(=O)c1cc([N+](=O)[O-])cn1C | > 100 µM (inactive) | > 100 µM (inactive) | > 100 µM (inactive) | > 100 | > 100 µM (inactive) | > 100 µM (inactive) | > 100 µM (inactive) | > 100 µM (inactive) | > 100 µM (inactive) | > 100 µM (inactive) | > 100 µM (inactive) | > 100 µM (inactive) | > 100 µM (inactive) | > 100 µM (inactive) | > 100 µM (inactive) | > 100 µM (inactive) | > 100 µM (inactive) | > 100 µM (inactive) | > 100 µM (inactive) | > 100 µM (inactive) |
